Experimental data: publication doi:10.1101/2024.08.19.608619, “Discovery of potent SARS-CoV-2 nsp3 macrodomain inhibitors uncovers lack of translation to cellular antiviral response” (bioRxiv, 2024)
Like-named read-outs stand apart in the source and are kept apart here.

Assays:
Experiment in all cases: biochemical
Set-up in all cases: In vitro kinase panel profiling, per cent remaining kinase activity at 10 uM
[1] = biological target: Plk3(h) (Homo sapiens, UniProt Q9H4B4); details: atp_concentration=70, read-out: % of control remaining
Sequence of Plk3(h) (Q9H4B4 whole entry): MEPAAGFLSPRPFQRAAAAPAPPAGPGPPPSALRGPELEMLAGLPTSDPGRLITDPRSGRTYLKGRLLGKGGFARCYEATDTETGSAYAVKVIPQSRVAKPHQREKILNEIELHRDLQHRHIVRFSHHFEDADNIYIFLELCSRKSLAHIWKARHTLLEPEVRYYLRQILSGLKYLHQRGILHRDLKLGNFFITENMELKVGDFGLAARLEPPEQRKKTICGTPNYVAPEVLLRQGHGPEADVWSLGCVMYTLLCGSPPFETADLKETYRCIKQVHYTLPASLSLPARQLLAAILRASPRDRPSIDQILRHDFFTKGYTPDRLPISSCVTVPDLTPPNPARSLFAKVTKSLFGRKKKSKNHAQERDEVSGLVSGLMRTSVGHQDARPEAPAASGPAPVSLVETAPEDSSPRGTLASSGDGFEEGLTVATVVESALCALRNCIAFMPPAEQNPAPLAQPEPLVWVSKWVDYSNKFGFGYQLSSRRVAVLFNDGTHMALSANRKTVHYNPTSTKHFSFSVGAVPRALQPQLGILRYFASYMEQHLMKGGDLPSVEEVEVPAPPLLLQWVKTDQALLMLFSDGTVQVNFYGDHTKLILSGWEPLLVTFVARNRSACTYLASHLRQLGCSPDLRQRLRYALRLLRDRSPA
Source text: (§1) We derisk potential for off-target activity by profiling the compound in a CEREP panel, a standard secondary pharmacology assessment, as well as a kinase panel to derisk a potential hinge-binding motif in our leads, and a PARP panel to derisk activity against human […]. Reassuringly, the compounds are selective, with the only off-targets being moderate human CHRM2 and KOR receptors activity associated with ASAP-0011198.

[2] = biological target: T1, EphB4(h) (Homo sapiens, UniProt P54760); details: atp_concentration=10, read-out: % of control remaining
T1 sequence (P54760 1-987): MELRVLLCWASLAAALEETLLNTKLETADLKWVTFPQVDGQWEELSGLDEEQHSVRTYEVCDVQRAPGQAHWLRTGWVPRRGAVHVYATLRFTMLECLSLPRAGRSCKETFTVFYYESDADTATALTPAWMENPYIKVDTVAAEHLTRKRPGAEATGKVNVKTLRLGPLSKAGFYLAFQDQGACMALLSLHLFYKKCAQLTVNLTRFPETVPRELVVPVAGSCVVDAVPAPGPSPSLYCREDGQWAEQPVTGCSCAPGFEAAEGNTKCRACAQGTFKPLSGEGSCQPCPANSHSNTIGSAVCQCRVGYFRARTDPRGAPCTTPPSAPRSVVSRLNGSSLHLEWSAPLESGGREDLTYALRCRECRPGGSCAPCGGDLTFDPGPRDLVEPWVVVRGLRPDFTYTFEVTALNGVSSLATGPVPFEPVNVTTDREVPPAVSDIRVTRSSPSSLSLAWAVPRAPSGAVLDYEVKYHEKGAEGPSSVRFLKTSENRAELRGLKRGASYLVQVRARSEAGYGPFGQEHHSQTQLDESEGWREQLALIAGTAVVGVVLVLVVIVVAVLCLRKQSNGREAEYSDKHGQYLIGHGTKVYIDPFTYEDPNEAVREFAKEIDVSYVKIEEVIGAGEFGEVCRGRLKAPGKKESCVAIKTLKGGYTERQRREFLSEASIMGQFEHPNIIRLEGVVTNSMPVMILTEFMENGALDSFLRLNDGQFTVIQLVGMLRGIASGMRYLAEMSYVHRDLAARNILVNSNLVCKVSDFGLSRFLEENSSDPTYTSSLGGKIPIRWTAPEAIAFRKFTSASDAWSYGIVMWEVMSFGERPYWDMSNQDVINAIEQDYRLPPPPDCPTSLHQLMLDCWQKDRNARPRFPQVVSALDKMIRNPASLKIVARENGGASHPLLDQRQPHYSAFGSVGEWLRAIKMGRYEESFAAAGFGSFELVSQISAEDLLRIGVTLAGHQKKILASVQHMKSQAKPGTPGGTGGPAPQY
Source text: as §1

[3] = biological target: T2, c-RAF(h) (Homo sapiens, UniProt P04049); details: atp_concentration=120, read-out: % of control remaining
T2 construct: gene RAF1
T2 sequence (P04049 whole entry): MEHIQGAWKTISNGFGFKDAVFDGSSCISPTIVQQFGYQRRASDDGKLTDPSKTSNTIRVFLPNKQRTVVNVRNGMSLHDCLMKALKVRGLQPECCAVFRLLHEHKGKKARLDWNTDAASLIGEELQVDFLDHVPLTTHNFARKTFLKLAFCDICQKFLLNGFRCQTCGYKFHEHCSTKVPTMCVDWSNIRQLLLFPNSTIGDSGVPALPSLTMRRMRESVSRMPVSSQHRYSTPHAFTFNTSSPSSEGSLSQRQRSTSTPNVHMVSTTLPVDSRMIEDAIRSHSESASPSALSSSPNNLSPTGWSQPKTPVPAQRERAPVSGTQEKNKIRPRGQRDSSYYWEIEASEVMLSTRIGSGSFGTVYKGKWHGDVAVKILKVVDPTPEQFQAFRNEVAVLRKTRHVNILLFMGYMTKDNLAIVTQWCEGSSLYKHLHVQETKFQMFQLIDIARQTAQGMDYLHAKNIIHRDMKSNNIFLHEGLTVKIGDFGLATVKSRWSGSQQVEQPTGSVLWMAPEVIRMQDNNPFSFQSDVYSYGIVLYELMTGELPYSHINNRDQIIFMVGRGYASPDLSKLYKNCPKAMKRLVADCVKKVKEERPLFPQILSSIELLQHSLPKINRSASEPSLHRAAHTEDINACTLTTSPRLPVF
Source text: as §1

[4] = biological target: CDK7/cyclinH/MAT1(h) (Homo sapiens, UniProt P50613); details: atp_concentration=90, read-out: % of control remaining
Sequence of CDK7/cyclinH/MAT1(h) (P50613 whole entry): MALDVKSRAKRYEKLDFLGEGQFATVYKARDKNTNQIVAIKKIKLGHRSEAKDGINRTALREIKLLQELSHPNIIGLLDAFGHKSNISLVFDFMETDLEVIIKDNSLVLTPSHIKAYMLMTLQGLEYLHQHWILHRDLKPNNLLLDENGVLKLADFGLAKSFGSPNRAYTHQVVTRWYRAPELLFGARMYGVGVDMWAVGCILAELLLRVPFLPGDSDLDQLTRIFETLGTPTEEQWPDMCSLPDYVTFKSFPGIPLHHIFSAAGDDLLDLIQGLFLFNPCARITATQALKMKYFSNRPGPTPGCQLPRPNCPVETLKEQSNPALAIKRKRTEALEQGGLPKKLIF
Sequence of CDK7/cyclinH/MAT1(h) (P51946 whole entry partner): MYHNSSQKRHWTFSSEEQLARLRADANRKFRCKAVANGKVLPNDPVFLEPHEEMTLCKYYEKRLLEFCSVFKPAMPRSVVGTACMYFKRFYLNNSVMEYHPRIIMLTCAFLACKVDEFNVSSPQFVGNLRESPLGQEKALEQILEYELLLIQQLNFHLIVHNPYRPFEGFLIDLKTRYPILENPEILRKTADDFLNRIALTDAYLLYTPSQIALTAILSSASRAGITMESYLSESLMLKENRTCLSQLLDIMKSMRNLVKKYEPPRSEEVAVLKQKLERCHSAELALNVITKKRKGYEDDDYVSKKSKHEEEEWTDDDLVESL
Sequence of CDK7/cyclinH/MAT1(h) (P51948 whole entry partner): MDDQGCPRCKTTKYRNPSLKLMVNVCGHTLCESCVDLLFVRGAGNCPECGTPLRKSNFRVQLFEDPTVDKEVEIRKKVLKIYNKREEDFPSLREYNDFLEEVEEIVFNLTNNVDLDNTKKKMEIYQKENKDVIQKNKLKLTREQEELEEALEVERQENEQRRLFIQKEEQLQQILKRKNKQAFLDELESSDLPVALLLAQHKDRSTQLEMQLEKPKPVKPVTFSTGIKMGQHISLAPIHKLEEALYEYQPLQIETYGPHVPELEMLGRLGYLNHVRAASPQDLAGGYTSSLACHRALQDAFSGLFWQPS
Source text: as §1

[5] = biological target: T3, IKKα(h) (Homo sapiens, UniProt O15111); details: atp_concentration=10, read-out: % of control remaining
T3 construct: gene CHUK
T3 sequence (O15111 1-745): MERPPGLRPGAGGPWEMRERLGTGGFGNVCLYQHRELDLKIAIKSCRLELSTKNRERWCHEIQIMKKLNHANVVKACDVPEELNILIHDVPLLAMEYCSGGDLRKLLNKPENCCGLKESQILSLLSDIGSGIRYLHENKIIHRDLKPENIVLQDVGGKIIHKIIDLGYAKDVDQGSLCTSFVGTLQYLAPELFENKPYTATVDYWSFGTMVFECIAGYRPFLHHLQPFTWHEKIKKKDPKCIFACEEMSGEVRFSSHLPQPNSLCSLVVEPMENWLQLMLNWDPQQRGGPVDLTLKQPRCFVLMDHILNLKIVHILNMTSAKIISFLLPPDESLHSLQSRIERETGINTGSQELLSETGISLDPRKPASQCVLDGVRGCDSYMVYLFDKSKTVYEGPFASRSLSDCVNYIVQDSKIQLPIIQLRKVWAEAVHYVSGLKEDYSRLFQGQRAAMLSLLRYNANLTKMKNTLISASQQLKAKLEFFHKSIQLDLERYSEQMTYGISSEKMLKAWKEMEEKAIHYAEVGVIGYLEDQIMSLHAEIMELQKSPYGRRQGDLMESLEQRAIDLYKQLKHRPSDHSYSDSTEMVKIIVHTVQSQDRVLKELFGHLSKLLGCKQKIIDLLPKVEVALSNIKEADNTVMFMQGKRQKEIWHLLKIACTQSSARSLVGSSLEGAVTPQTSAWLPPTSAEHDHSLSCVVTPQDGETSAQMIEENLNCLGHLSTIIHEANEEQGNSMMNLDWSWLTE
Source text: as §1

[6] = biological target: T4, Mnk2(h) (Homo sapiens, UniProt Q9HBH9); details: atp_concentration=120, read-out: % of control remaining
T4 construct: gene MKNK2
T4 sequence (Q9HBH9 whole entry): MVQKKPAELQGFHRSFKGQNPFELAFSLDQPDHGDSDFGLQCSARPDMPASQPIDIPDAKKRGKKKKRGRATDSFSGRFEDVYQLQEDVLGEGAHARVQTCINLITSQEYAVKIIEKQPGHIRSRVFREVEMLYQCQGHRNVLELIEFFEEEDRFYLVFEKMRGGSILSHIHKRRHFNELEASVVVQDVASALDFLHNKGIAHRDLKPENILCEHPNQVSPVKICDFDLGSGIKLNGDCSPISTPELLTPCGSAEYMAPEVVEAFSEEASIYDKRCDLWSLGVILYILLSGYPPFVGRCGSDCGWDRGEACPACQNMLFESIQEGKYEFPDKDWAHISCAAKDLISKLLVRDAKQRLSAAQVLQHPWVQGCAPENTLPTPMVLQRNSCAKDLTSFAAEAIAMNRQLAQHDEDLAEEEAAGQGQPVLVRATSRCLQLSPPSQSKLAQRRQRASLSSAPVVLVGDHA
Source text: as §1

[7] = biological target: T5, AMPKα1(h) (Homo sapiens, UniProt Q13131); details: atp_concentration=45, read-out: % of control remaining
T5 construct: gene PRKAA1
T5 sequence (Q13131 whole entry): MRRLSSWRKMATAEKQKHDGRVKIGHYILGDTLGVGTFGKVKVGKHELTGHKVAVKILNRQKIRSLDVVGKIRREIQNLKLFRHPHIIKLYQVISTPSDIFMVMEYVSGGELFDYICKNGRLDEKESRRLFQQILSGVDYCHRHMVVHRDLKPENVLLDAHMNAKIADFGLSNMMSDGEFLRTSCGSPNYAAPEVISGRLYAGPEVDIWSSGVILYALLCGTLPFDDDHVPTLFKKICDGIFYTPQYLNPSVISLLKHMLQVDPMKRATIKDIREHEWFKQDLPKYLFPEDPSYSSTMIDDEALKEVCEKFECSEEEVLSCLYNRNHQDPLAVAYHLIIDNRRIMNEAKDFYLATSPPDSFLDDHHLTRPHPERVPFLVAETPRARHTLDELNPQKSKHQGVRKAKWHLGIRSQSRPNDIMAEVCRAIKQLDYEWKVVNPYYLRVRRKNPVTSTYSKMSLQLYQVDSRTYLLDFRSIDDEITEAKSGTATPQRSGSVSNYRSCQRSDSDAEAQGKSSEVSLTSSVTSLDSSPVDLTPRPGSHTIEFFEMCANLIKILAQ
T5 sequence (P54619 whole entry partner): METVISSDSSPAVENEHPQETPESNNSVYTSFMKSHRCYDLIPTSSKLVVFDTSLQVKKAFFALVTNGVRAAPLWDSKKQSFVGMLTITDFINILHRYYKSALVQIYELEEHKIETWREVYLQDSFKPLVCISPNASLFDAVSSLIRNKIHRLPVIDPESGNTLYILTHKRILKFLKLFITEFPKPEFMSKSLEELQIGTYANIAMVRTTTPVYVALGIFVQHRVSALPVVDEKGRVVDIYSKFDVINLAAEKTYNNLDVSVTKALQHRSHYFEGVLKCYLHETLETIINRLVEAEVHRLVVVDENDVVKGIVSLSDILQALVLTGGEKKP
T5 sequence (Q9Y478 whole entry partner): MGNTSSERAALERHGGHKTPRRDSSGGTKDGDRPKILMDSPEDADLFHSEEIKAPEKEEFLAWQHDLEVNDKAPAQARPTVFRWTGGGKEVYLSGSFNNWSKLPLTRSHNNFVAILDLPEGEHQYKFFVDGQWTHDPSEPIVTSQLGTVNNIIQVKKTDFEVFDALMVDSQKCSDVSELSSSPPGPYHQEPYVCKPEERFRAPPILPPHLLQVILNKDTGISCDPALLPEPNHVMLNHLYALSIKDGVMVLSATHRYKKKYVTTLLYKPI
Source text: as §1

[8] = biological target: T6, MSK2(h) (Homo sapiens, UniProt O75676); details: atp_concentration=45, read-out: % of control remaining
T6 construct: gene RPS6KA4
T6 sequence (O75676 whole entry): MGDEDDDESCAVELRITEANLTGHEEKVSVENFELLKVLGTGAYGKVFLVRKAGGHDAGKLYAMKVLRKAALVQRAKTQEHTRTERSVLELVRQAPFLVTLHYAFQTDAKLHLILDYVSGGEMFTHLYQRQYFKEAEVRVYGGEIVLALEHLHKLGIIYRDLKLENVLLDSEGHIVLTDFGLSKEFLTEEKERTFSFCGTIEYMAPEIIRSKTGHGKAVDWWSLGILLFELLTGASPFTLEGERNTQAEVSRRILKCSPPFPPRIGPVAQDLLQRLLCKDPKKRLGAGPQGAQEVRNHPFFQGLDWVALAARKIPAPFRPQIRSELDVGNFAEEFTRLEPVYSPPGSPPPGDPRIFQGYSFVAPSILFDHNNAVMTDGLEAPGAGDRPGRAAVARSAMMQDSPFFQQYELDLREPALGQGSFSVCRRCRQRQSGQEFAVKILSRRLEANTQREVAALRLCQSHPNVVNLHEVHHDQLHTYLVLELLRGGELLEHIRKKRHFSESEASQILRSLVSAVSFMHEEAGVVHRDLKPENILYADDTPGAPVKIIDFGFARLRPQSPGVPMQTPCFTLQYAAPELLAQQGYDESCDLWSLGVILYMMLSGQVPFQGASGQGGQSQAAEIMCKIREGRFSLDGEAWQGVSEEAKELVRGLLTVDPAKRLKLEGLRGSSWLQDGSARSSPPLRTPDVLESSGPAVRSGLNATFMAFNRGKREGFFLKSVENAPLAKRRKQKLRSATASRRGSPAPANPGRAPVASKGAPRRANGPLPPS
Source text: as §1

Structure (SMILES): Cn1ncc(-c2cc3c(N[C@@H](c4ccc5c(n4)OCCO5)C(C)(C)C)ncnc3[nH]2)c1C#N [ASAP-0011221]
- remaining activity at 10 µM ([1]; batch_name=ASAP-0011221-002): 77%
- remaining activity at 10 µM ([2]; batch_name=ASAP-0011221-002): 115%
- remaining activity at 10 µM ([3]; batch_name=ASAP-0011221-002): 87%
- remaining activity at 10 µM ([4]; batch_name=ASAP-0011221-002): 108%
- remaining activity at 10 µM ([5]; batch_name=ASAP-0011221-002): 125%
- remaining activity at 10 µM ([6]; batch_name=ASAP-0011221-002): 100%
- remaining activity at 10 µM ([7]; batch_name=ASAP-0011221-002): 109%
- remaining activity at 10 µM ([8]; batch_name=ASAP-0011221-002): 122%

Structure (SMILES): Cc1nn(C)cc1-c1cc2c(NC(c3ccc4c(c3)S(=O)(=O)CCC4)C(C)C)ncnc2[nH]1 (centres unmarked) [ASAP-0011446]
- remaining activity at 10 µM ([1]; batch_name=ASAP-0011446-002): 104%
- remaining activity at 10 µM ([2]; batch_name=ASAP-0011446-002): 98%
- remaining activity at 10 µM ([3]; batch_name=ASAP-0011446-002): 93%
- remaining activity at 10 µM ([4]; batch_name=ASAP-0011446-002): 93%
- remaining activity at 10 µM ([5]; batch_name=ASAP-0011446-002): 94%
- remaining activity at 10 µM ([6]; batch_name=ASAP-0011446-002): 99%
- remaining activity at 10 µM ([7]; batch_name=ASAP-0011446-002): 102%
- remaining activity at 10 µM ([8]; batch_name=ASAP-0011446-002): 105%

Structure (SMILES): C[C@H](C(=O)O)[C@@H](NC(=O)c1ncnc2[nH]ccc12)c1ccc(Br)cc1 [ASAP-0014722]
- remaining activity at 10 µM ([1]; batch_name=ASAP-0014722-002): 98%
- remaining activity at 10 µM ([2]; batch_name=ASAP-0014722-002): 105%
- remaining activity at 10 µM ([3]; batch_name=ASAP-0014722-002): 108%
- remaining activity at 10 µM ([4]; batch_name=ASAP-0014722-002): 99%
- remaining activity at 10 µM ([5]; batch_name=ASAP-0014722-002): 99%
- remaining activity at 10 µM ([6]; batch_name=ASAP-0014722-002): 110%
- remaining activity at 10 µM ([7]; batch_name=ASAP-0014722-002): 93%
- remaining activity at 10 µM ([8]; batch_name=ASAP-0014722-002): 90%

Structure (SMILES): COc1ccc([C@H](Cc2nnn[nH]2)NC(=O)c2ncnc3[nH]ccc23)cc1 [ASAP-0015381]
- remaining activity at 10 µM ([1]; batch_name=ASAP-0015381-001): 102%
- remaining activity at 10 µM ([2]; batch_name=ASAP-0015381-001): 106%
- remaining activity at 10 µM ([3]; batch_name=ASAP-0015381-001): 103%
- remaining activity at 10 µM ([4]; batch_name=ASAP-0015381-001): 107%
- remaining activity at 10 µM ([5]; batch_name=ASAP-0015381-001): 98%
- remaining activity at 10 µM ([6]; batch_name=ASAP-0015381-001): 115%
- remaining activity at 10 µM ([7]; batch_name=ASAP-0015381-001): 97%
- remaining activity at 10 µM ([8]; batch_name=ASAP-0015381-001): 103%
